In ChEMBL document CHEMBL3991601, “The target landscape of clinical kinase drugs” (Science, 2017):
Active and inactive are the calls of the source. Rule as the data show it, for most assays here: actives have a measured Kd and inactives only a lower limit.

Columns and labels:
[1] = molecular target: T1, Peroxisomal acyl-coenzyme A oxidase 3 (Homo sapiens, UniProt O15254)
T1 sequence (O15254 whole entry): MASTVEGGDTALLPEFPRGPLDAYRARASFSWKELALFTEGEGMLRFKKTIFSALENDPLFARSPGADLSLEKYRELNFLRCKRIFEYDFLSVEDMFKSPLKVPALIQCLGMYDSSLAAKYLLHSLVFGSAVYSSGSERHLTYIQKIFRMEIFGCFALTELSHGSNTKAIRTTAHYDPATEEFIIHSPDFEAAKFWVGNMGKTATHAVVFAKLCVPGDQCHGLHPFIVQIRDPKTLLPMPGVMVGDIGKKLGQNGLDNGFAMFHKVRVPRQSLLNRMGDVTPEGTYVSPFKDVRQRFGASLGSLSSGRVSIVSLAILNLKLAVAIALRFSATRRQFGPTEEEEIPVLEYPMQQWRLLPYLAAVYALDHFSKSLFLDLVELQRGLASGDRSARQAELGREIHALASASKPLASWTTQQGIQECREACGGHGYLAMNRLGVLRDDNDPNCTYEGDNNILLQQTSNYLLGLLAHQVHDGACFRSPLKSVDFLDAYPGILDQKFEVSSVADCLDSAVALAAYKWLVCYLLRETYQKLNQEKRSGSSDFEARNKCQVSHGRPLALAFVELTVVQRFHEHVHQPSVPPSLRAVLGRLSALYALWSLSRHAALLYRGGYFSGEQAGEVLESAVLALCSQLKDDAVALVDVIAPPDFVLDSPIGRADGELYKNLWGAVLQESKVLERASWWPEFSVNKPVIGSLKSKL

[2] = molecular target: 26S proteasome regulatory subunit 6B (Homo sapiens, UniProt P43686)
Sequence of 26S proteasome regulatory subunit 6B (P43686 whole entry): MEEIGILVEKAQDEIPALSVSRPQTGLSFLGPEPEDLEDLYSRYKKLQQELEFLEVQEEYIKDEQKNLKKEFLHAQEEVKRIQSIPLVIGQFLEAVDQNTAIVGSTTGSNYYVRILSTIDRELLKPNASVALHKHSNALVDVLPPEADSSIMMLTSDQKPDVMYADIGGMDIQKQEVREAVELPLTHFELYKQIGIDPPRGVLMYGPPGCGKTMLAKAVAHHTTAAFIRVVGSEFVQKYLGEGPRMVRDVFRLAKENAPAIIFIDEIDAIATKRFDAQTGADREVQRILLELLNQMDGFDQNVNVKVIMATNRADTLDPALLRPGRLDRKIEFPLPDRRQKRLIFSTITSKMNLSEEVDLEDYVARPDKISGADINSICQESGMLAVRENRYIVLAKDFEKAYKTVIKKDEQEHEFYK

[3] = molecular target: Serine/threonine-protein kinase SIK3 (Homo sapiens, UniProt Q9Y2K2)
[4] = molecular target: Cyclin-dependent kinase 7 (Homo sapiens, UniProt P50613)
Sequence of Cyclin-dependent kinase 7 (P50613 whole entry): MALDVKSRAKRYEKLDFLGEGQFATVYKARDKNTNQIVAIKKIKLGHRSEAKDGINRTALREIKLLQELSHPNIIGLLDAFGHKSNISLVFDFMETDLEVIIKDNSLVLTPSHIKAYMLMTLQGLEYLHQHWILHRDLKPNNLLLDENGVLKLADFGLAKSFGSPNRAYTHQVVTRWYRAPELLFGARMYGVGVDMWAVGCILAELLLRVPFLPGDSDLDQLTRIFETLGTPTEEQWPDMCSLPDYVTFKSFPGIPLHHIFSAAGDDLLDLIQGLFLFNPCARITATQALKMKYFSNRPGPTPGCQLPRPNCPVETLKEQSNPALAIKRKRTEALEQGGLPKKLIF

[5] = molecular target: T2, Serine/threonine-protein kinase ICK (Homo sapiens, UniProt Q9UPZ9)
T2 sequence (Q9UPZ9 whole entry): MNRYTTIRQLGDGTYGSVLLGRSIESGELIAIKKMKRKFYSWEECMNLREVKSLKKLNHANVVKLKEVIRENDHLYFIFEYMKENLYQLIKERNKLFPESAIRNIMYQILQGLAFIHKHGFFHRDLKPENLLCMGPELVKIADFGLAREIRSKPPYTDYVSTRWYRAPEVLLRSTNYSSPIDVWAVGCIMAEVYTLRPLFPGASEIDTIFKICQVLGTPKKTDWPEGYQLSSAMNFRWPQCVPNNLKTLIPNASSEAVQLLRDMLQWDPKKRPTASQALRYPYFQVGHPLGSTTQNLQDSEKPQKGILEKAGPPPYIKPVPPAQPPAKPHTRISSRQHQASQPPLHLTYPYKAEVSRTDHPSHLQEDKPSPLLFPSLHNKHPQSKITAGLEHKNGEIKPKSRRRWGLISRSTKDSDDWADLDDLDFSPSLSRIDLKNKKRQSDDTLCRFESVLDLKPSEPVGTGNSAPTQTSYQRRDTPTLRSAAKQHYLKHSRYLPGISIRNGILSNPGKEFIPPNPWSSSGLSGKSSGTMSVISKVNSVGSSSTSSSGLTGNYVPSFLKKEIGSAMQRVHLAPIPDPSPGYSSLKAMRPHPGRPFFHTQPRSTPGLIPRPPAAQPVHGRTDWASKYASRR

[6] = molecular target: Epithelial discoidin domain-containing receptor 1 (Homo sapiens, UniProt Q08345)
Sequence of Epithelial discoidin domain-containing receptor 1 (Q08345 whole entry, the tested form may be a part): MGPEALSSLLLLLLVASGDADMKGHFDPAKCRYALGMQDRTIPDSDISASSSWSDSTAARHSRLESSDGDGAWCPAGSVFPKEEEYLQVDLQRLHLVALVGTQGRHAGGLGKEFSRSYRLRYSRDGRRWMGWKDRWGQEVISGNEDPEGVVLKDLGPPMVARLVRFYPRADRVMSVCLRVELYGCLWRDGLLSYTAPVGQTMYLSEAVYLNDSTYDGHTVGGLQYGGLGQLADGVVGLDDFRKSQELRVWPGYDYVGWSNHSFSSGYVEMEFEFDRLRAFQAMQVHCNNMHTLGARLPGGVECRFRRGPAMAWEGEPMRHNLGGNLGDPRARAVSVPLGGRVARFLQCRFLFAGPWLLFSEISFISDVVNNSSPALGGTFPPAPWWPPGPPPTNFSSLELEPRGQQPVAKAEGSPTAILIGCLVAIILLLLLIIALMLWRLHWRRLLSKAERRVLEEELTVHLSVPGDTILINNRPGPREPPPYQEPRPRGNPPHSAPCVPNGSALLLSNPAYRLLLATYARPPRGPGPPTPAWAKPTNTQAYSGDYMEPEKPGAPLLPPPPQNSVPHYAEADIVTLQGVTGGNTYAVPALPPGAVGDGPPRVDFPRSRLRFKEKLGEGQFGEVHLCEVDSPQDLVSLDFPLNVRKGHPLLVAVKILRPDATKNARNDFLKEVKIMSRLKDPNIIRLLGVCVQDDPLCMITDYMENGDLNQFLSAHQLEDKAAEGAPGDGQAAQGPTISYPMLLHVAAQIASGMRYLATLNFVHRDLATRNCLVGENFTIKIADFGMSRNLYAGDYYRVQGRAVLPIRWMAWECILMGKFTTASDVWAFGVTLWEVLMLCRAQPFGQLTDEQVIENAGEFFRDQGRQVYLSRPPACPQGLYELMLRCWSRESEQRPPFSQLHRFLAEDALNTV

[7] = molecular target: T3, cGMP-dependent protein kinase 1 (Homo sapiens, UniProt Q13976)
T3 sequence (Q13976 whole entry): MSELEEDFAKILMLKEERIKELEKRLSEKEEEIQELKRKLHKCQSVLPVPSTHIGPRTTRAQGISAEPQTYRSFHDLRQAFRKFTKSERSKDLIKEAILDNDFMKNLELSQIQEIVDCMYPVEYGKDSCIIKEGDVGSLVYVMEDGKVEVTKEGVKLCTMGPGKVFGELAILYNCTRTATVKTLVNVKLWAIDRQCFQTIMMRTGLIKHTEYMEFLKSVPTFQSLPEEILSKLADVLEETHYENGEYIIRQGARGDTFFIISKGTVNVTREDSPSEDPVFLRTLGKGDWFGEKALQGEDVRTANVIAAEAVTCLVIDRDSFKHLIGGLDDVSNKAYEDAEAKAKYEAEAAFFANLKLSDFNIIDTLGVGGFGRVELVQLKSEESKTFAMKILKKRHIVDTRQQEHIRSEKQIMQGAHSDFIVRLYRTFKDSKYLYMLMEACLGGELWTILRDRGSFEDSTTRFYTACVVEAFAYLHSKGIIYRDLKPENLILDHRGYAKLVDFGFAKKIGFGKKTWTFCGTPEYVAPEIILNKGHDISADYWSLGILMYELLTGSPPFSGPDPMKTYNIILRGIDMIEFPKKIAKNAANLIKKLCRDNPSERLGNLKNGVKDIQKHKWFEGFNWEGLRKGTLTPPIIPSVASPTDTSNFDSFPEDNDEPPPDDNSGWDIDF

[8] = molecular target: Mitogen-activated protein kinase kinase kinase kinase 5 (Homo sapiens, UniProt Q9Y4K4)
Sequence of Mitogen-activated protein kinase kinase kinase kinase 5 (Q9Y4K4 whole entry): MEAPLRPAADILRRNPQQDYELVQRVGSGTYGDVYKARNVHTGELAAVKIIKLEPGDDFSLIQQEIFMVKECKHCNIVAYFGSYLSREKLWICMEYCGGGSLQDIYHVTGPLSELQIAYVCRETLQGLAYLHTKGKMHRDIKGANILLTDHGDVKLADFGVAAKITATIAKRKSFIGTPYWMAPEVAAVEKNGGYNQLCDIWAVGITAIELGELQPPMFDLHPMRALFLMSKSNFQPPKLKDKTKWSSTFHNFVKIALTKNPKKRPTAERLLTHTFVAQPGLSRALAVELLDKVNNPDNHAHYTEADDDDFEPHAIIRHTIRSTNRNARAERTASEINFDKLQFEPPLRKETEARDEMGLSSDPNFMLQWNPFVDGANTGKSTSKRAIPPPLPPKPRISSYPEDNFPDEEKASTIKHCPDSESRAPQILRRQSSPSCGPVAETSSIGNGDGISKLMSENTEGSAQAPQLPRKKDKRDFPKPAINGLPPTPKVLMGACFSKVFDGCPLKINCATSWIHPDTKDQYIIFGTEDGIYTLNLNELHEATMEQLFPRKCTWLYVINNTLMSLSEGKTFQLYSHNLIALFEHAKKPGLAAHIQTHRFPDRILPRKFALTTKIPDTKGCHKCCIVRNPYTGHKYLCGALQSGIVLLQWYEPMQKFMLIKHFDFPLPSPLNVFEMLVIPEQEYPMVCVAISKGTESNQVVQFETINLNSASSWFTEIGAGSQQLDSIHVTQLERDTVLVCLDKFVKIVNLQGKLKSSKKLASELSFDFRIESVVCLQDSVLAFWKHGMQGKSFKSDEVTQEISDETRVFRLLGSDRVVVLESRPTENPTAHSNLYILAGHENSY

Midasin = Midasin (Homo sapiens, UniProt Q9NU22)
[9] = molecular target: Bone morphogenetic protein receptor type-1A (Homo sapiens, UniProt P36894)
Sequence of Bone morphogenetic protein receptor type-1A (P36894 whole entry): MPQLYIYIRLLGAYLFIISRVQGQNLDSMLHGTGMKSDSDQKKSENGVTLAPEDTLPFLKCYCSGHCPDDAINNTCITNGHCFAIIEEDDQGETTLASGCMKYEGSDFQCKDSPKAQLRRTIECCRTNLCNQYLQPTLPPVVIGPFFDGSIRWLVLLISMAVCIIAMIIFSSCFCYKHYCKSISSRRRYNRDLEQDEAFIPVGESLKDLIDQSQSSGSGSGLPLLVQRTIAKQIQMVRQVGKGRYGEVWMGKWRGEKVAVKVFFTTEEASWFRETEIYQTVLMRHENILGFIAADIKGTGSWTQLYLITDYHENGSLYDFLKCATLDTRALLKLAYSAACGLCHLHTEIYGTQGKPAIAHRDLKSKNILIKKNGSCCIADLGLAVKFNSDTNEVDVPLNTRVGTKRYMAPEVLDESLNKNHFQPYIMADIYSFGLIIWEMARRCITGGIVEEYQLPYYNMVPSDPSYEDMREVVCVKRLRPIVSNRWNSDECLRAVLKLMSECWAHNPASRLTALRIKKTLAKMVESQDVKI

[10] = molecular target: Mitogen-activated protein kinase kinase kinase kinase 4 (Homo sapiens, UniProt O95819)
Sequence of Mitogen-activated protein kinase kinase kinase kinase 4 (O95819 whole entry): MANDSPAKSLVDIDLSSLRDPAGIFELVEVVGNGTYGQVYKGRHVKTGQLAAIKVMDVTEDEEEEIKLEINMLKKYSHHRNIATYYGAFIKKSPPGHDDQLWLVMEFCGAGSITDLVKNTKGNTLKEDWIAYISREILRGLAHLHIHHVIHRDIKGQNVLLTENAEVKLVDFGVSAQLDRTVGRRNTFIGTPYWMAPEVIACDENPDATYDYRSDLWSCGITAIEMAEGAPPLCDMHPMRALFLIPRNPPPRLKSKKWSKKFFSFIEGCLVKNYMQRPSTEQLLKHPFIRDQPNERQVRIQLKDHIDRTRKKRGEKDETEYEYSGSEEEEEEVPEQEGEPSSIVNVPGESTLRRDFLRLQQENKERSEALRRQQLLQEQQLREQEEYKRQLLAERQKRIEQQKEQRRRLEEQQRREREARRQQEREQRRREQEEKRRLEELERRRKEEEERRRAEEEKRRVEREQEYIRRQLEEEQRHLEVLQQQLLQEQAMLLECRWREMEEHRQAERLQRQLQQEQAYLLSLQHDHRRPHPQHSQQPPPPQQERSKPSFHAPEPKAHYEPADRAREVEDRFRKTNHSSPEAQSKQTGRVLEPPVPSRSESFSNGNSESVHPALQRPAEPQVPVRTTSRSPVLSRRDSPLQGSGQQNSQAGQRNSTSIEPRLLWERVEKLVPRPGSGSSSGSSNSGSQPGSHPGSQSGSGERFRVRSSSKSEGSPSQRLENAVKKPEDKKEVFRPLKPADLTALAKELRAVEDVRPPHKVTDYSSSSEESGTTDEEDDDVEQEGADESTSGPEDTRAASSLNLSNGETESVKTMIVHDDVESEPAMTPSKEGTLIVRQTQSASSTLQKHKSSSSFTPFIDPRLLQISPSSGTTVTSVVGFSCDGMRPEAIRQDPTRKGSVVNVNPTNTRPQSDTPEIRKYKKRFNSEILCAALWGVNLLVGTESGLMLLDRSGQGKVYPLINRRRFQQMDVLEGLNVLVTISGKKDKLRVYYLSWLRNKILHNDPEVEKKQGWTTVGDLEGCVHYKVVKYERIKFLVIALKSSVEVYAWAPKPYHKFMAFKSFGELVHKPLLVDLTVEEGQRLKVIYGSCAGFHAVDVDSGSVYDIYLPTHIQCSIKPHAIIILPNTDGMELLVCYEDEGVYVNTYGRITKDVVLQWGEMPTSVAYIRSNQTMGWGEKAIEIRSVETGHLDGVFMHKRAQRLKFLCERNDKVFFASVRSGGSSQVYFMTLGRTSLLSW

[11] = molecular target: T4, Interleukin-1 receptor-associated kinase 4 (Homo sapiens, UniProt Q9NWZ3)
T4 sequence (Q9NWZ3 whole entry): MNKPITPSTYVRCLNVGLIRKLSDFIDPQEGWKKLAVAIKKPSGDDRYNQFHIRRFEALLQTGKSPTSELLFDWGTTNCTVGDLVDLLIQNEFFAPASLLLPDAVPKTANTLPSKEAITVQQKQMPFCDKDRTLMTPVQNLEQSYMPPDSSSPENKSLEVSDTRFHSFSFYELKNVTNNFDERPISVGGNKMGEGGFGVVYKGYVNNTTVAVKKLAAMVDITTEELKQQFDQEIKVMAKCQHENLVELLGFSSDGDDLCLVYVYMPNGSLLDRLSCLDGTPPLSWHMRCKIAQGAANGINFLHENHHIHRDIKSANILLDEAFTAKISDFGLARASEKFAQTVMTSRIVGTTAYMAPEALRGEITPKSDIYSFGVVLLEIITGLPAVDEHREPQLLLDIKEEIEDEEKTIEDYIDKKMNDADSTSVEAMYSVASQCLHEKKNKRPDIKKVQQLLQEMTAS

[12] = molecular target: Citron Rho-interacting kinase (Homo sapiens, UniProt O14578)
Also: in the data inactive means no Kd found up to 30 µM.

| Kd [1] | Kd [2] | Kd [3] | Kd [4] | Kd [5] | Kd [6] | Kd [7] | Kd [8] | Kd (Midasin) | Kd [9] | Kd [10] | Kd [11] | Kd [12] | Compound |
| --- | --- | --- | --- | --- | --- | --- | --- | --- | --- | --- | --- | --- | --- |
| > 30 µM (inactive) | > 30 µM (inactive) | > 30 µM (inactive) | > 30 µM (inactive) | > 30 µM (inactive) | > 30 µM (inactive) | > 30 µM (inactive) | > 30 µM (inactive) | > 30 µM (inactive) | > 30 µM (inactive) | > 30 µM (inactive) | > 30 µM (inactive) | > 30 µM (inactive) | O=C(Nc1ccc(OC(F)(F)F)cc1)c1sccc1NCc1ccnc2ccccc12 [OSI-930] |
| > 30 µM (inactive) | > 30 µM (inactive) | > 30 µM (inactive) | > 30 µM (inactive) | > 30 µM (inactive) | > 30 µM (inactive) | > 30 µM (inactive) | > 30 µM (inactive) | > 30 µM (inactive) | > 30 µM (inactive) | > 30 µM (inactive) | > 30 µM (inactive) | > 30 µM (inactive) | COc1cc(Nc2ncc(F)c(Nc3ccc4c(n3)N(COP(=O)(O)O)C(=O)C(C)(C)O4)n2)cc(OC)c1OC [FOSTAMATINIB] |
| > 30 µM (inactive) | > 30 µM (inactive) | > 30 µM (inactive) | > 30 µM (inactive) | > 30 µM (inactive) | > 30 µM (inactive) | > 30 µM (inactive) | > 30 µM (inactive) | – | > 30 µM (inactive) | > 30 µM (inactive) | > 30 µM (inactive) | > 30 µM (inactive) | CNC(=O)c1cc(COc2nnc(Nc3ccc(Cl)cc3)c3ccoc23)ccn1 [TELATINIB] |
| > 30 µM (inactive) | > 30 µM (inactive) | > 30 µM (inactive) | > 30 µM (inactive) | > 30 µM (inactive) | > 30 µM (inactive) | > 30 µM (inactive) | > 30 µM (inactive) | > 30 µM (inactive) | > 30 µM (inactive) | > 30 µM (inactive) | > 30 µM (inactive) | > 30 µM (inactive) | COc1ccc(-c2ccc3ncc4c(c3c2)n(-c2ccc(N3CCNCC3)c(C(F)(F)F)c2)c(=O)n4C)cn1 [BGT-226 FREE BASE] |
| > 30 µM (inactive) | > 30 µM (inactive) | > 30 µM (inactive) | > 30 µM (inactive) | > 30 µM (inactive) | > 30 µM (inactive) | > 30 µM (inactive) | > 30 µM (inactive) | > 30 µM (inactive) | > 30 µM (inactive) | > 30 µM (inactive) | > 30 µM (inactive) | > 30 µM (inactive) | FC(F)(F)c1ccc(CNc2ccc(Cc3c[nH]c4ncc(Cl)cc34)cn2)cn1 [PEXIDARTINIB] |
| > 30 µM (inactive) | > 30 µM (inactive) | > 30 µM (inactive) | > 30 µM (inactive) | > 30 µM (inactive) | > 30 µM (inactive) | > 30 µM (inactive) | > 30 µM (inactive) | > 30 µM (inactive) | > 30 µM (inactive) | > 30 µM (inactive) | > 30 µM (inactive) | > 30 µM (inactive) | C=CC(=O)Nc1cccc(Nc2nc(Nc3ccc(N4CCN(C(C)=O)CC4)cc3OC)ncc2C(F)(F)F)c1 [ROCILETINIB] |
| > 30 µM (inactive) | > 30 µM (inactive) | > 30 µM (inactive) | > 30 µM (inactive) | > 30 µM (inactive) | > 30 µM (inactive) | > 30 µM (inactive) | > 30 µM (inactive) | > 30 µM (inactive) | > 30 µM (inactive) | > 30 µM (inactive) | > 30 µM (inactive) | > 30 µM (inactive) | Cc1cc(Nc2nc(N[C@@H](C)c3ncc(F)cn3)ncc2Cl)n[nH]1 [AZD-1480] |
| > 30 µM (inactive) | > 30 µM (inactive) | > 30 µM (inactive) | > 30 µM (inactive) | > 30 µM (inactive) | > 30 µM (inactive) | > 30 µM (inactive) | > 30 µM (inactive) | > 30 µM (inactive) | > 30 µM (inactive) | > 30 µM (inactive) | > 30 µM (inactive) | > 30 µM (inactive) | O=S(=O)(c1cccc2c(O)nccc12)N1CCCNCC1 [HYDROXYFASUDIL] |
| > 30 µM (inactive) | > 30 µM (inactive) | > 30 µM (inactive) | > 30 µM (inactive) | > 30 µM (inactive) | > 30 µM (inactive) | > 30 µM (inactive) | > 30 µM (inactive) | > 30 µM (inactive) | > 30 µM (inactive) | > 30 µM (inactive) | > 30 µM (inactive) | > 30 µM (inactive) | C[C@@H]1COC(Nc2ccc3ncnc(Nc4ccc(OCc5nccs5)c(Cl)c4)c3c2)=N1 [VARLITINIB] |
| > 30 µM (inactive) | > 30 µM (inactive) | > 30 µM (inactive) | 7.12 µM (active) | 0.884 µM (active) | > 30 µM (inactive) | > 30 µM (inactive) | > 30 µM (inactive) | > 30 µM (inactive) | > 30 µM (inactive) | > 30 µM (inactive) | > 30 µM (inactive) | > 30 µM (inactive) | O=C(O)c1ccc2c(c1)nc(Nc1cccc(Cl)c1)c1ccncc12 [SILMITASERTIB] |

| Compound | Kd [1] | Kd [2] | Kd [3] | Kd [4] | Kd [5] | Kd [6] | Kd [7] | Kd [8] | Kd (Midasin) | Kd [9] | Kd [10] | Kd [11] | Kd [12] |
| --- | --- | --- | --- | --- | --- | --- | --- | --- | --- | --- | --- | --- | --- |
| COc1cc(F)c(F)c(Nc2ccc(I)cc2F)c1NS(=O)(=O)C1(C[C@H](O)CO)CC1 [REFAMETINIB] | > 30 µM (inactive) | > 30 µM (inactive) | > 30 µM (inactive) | > 30 µM (inactive) | > 30 µM (inactive) | > 30 µM (inactive) | > 30 µM (inactive) | > 30 µM (inactive) | > 30 µM (inactive) | > 30 µM (inactive) | > 30 µM (inactive) | > 30 µM (inactive) | > 30 µM (inactive) |
